According to patent publication US10106515B2, “1-(cyclopent-2-en-1-yl)-3-(2-hydroxy-3-(arylsulfonyl)phenyl)urea derivatives as CXCR2 inhibitors” (GLAXOSMITHKLINE INTELLECTUAL PROPERTY DEVELOPMENT LIMITED, priority 2014, dated 2018):
Where a name gives a salt, the structure may show the parent alone. Read-outs that look alike come from different tables or passages of the source.

Molecular target: T1, recombinant human CXCR2 (Homo sapiens, UniProt P25025)
T1 construct: TEV protease site; Gal4-VP16 transcription factor
T1 sequence (P25025 1-360): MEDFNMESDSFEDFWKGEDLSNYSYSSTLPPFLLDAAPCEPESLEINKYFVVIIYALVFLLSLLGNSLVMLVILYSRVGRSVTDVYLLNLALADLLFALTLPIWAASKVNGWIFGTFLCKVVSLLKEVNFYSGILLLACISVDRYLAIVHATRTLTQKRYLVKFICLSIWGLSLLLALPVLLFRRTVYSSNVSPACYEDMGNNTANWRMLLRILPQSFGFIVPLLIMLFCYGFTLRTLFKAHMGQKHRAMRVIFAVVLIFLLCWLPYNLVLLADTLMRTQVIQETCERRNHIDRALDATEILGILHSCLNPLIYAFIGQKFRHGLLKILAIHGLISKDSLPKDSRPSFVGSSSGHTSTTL
Test: CXCR2 Tango assay
Assay type: cell-based
Details: mean pIC50 of multiple test results, stimulated with 80 nM hCXCL1, reporter gene blue/green emission ratio
Source text: The assay measures ligand-induced activation of the receptor CXCR2 in a stable cell line containing the recombinant human CXCR2 linked to a TEV protease site and a Gal4-VP16 transcription factor (Invitrogen). Ligand binding to the receptor results in the recruitment of arrestin proteins (tagged with protease) to the receptor and triggers the release of a tethered transcription factor. The transcription factor enters the nucleus and activates the transcription of the reporter gene. The ability of a compound to inhibit CXCR2 activation is indirectly assessed by measuring the reporter gene activity.
A vial of cryopreserved cells was removed from liquid nitrogen and rapidly thawed in a water bath at 37° C. with gentle agitation. The contents of the vial were transferred drop-wise into Thawing Medium in a sterile 15 ml conical tube and then centrifuged at 1000 rpm for 4-5 min. Then the cell pellets were resuspended in Assay Medium at a density of ˜200,000 cells/ml. All test compounds were dissolved in DMSO at a concentration of 10 mM and were prepared in 100% DMSO to provide 10 point dose response curves. A reference CXCR2 antagonist was added to wells in row 2, columns 1-5 & 7-11. Exemplified compounds 1-4, 7, 8-10, 13-22, 24-26, 28-30, 32, 33, 36, 37, 40, 42-44. 95-110, 115-118, 120, 121, 125, 126, 129-134, 137, 138, 140, 142, 147-149, 153-157, 159-162, 163-166, 168, 170, 172, 174-180 and 202 were tested using the CXCR2 antagonist sodium 3-chloro-6-(3-(2,3-dichlorophenyl)ureido)-2-sulfamoylphenolate as reference compound (Reference Compound 1) (published International patent application WO2002/079122). […] Test compounds were added to wells in row 2, columns 13-17 & 19-23 and rows 3-15, columns 1-5 & 7-11/13-17 & 19-23 (columns 6 and 18 as positive controls and un-stimulated controls respectively; columns 12 and 24 as cell-free control). Compounds in solution were added to the assay plate (Greiner 781090) using an Echo (Labcyte) concentration-response program (50 nl/well). The cell-free, un-stimulated and positive controls were loaded with 50 nl/well pure DMSO to ensure that the DMSO concentration was constant across the plate for all assays. Using Multi-drop Combi (Thermo) with standard cassette, 50 μl of Assay Medium was added to each well in the cell-free controls (columns 12 and 24); 50 μl of the cell suspension without hCXCL1 (a CXCR2 ligand) was added to each well in column 18 of the plate (˜10,000 cells per well); and 50 μl of the cell suspension with 80 nM hCXCL1 was added to the rest of wells of the plate (˜10,000 cells per well). The cells were incubated overnight at 37° C./5% CO2. 10 μl of 6× substrate mixture (LiveBLAzer™-FRET B/G substrate (CCF4-AM) Cat # K1096 from Invitrogen, Inc.) was added to each well using Multi-drop Combi (Thermo) with small-tube cassette and the plates incubated at room temperature for 2 h in the dark. The plate was finally read on EnVision using one excitation channel (409 nm) and two emission channels (460 nm and 530 nm).
The blue/green emission ratio (460 nm/530 nm) was calculated for each well, by dividing the background-subtracted Blue emission values by the background-subtracted Green emission values. The dose response curve was based on sigmoidal dose-response model. All ratio data was normalized based upon the maximum emission ratio of positive control (hCXCL1) and minimum emission ratio of negative control (DMSO) on each plate. The intrinsic activity (IA) of each compound would be the normalized percentage of its maximum response after curve fitting.
All exemplified compounds (except for Compounds 203 and 204) were tested in the CXCR2 Tango assay or a similar assay described above. The data mentioned below represents a mean pIC 50 value of multiple test results. It is understood that the data illustrated below may have reasonable variation depending on the specific conditions and procedures used by the person conducting the testing.

[1] = read-out: pIC50 (CXCR2 Tango assay) (converted)

| SMILES | IC50 [1] | IC50 (pIC50 (CXCR2 Tango assay)) |
| --- | --- | --- |
| CC(C)(C(F)(F)F)S(=O)(=O)c1c(Cl)ccc(NC(=O)NC2C=CCC2)c1O (stereo not shown) [Compound 1, 1-(4-chloro-2-hydroxy-3-((1,1,1-trifluoro-2-methylpropan-2-yl)sulfonyl)phenyl)-3-(cyclopent-2-en-1-yl)urea] | ≤ 10 nM |  |
| CC1=CCC[C@H]1NC(=O)Nc1ccc(Cl)c(S(=O)(=O)[C@H]2CC[C@H](O)C2)c1O (racemic) [Compound 45, (±)-trans-1-(4-chloro-2-hydroxy-3-((3-hydroxycyclopentyl)sulfonyl)phenyl)-3-((R)-2-methylcyclopent-2-en-1-yl)urea] | ≤ 1 nM |  |
| [2H]C1(S(=O)(=O)c2c(Cl)ccc(NC(=O)N[C@@H]3CCC=C3C)c2O)CCN(C2CCC2)CC1 [Compound 81, (R)-1-(4-chloro-3-((1-cyclobutylpiperidin-4-yl)sulfonyl)-2-hydroxyphenyl)-3-(2-methylcyclopent-2-en-1-yl)urea-d1, trifluoroacetic acid salt] | ≤ 1 nM |  |
| CC1=CCCC1NC(=O)Nc1ccc(Cl)c(S(=O)(=O)[C@H]2CC[C@@H](N(C)C)CC2)c1O (stereo partly shown) [Compound 129, 1-(4-chloro-3-(((1s,4s)-4-(dimethylamino)cyclohexyl)sulfonyl)-2-hydroxyphenyl)-3-(2-methylcyclopent-2-en-1-yl)urea, trifluoroacetic acid salt] | ≤ 1 nM |  |
| CC1=CCCC1NC(=O)Nc1ccc(Cl)c(S(=O)(=O)C(C)(C)F)c1O (stereo not shown) [Compound 105, 1-(4-chloro-3-((2-fluoropropan-2-yl)sulfonyl)-2-hydroxyphenyl)-3-(2-methylcyclopent-2-en-1-yl)urea] | ≤ 10 nM |  |
| O=C(Nc1ccc(Cl)c(S(=O)(=O)[C@H]2C[C@@H](O)C2)c1O)NC1C=CCC1 (stereo partly drawn) [Compound 164, 1-(4-chloro-2-hydroxy-3-((cis-3-hydroxycyclobutyl)sulfonyl)phenyl)-3-(cyclopent-2-en-1-yl)urea] | ≤ 10 nM |  |
| CC1=CCC[C@H]1NC(=O)Nc1ccc(Cl)c(S(=O)(=O)[C@H]2C[C@H](C(F)F)C2)c1O [Compound 48, 1-(4-chloro-3-((trans-3-(difluoromethyl)cyclobutyl)sulfonyl)-2-hydroxyphenyl)-3-((R)-2-methylcyclopent-2-en-1-yl)urea] | ≤ 1 nM |  |
| CC(C)(CF)S(=O)(=O)c1c(Cl)ccc(NC(=O)NC2C=CCC2)c1O (stereo not shown) [Compound 9, 1-(4-chloro-3-((1-fluoro-2-methylpropan-2-yl)sulfonyl)-2-hydroxyphenyl)-3-(cyclopent-2-en-1-yl)urea] | ≤ 10 nM |  |
| CC1=CCC[C@H]1NC(=O)Nc1ccc(Cl)c(S(=O)(=O)C2CCN(C3CCC3)CC2)c1O [Compound 83, (R)-1-(4-chloro-3-((1-cyclobutylpiperidin-4-yl)sulfonyl)-2-hydroxyphenyl)-3-(2-methylcyclopent-2-en-1-yl)urea trifluoroacetic acid salt] |  | ≤ 1 nM |
| CC1=CCC[C@H]1NC(=O)Nc1ccc(Cl)c(S(=O)(=O)[C@@H]2CCCC[C@H]2O)c1O [Compound 46, 1-(4-chloro-2-hydroxy-3-((trans-2-hydroxycyclohexyl)sulfonyl)phenyl)-3-((R)-2-methylcyclopent-2-en-1-yl)urea] | ≤ 1 nM |  |
| CC(C)(C)S(=O)(=O)c1c(Cl)ccc(NC(=O)NC2CCC=C2Cl)c1O (stereo not shown) [Compound 3, 1-(3-(tert-butylsulfonyl)-4-chloro-2-hydroxyphenyl)-3-(2-chlorocyclopent-2-en-1-yl)urea] | ≤ 10 nM |  |
| CC(C)(CF)S(=O)(=O)c1c(Cl)ccc(NC(=O)NC2CCC=C2Cl)c1O (stereo not shown) [Compound 10, 1-(4-chloro-3-((1-fluoro-2-methylpropan-2-yl)sulfonyl)-2-hydroxyphenyl)-3-(2-chlorocyclopent-2-en-1-yl)urea] | ≤ 10 nM |  |
| COC1CCN(S(=O)(=O)c2c(Cl)ccc(NC(=O)NC3CCC=C3C)c2O)CC1 (stereo not shown) [Compound 154, 1-(4-chloro-2-hydroxy-3-((4-methoxypiperidin-1-yl)sulfonyl)phenyl)-3-(2-methylcyclopent-2-en-1-yl)urea] | ≤ 10 nM |  |
